Reference: patent publication US10561763B2, “Oxygen generating biomaterial” (THE BOARD OF REGENTS OF THE UNIVERSITY OF TEXAS SYSTEM, priority 2013, dated 2020)

Assay: half-life of thermal oxygen release (thermolysis) of endoperoxides in CDCl3 at 25° C.
Assay type: physicochemical
Conditions: CDCL3, 25° C.
Text: In certain aspect an oxygen generating biomaterial can comprise a fast release thermolytic endoperoxide, a slow release thermolytic endoperoxide, or a slow release thermolytic endoperoxide and a fast release endoperoxide. A biomaterial can further comprise a singlet oxygen quencher. […] The ti/2 half-life is temperature dependent. This aids in both storage and release. The ti/2 is longer the lower the storage temperatures. […] The endoperoxide oxygen-carrier is most conveniently prepared by photo-oxidation of a precursor aromatic organic compound. The structure of the endoperoxide-forming compound determines its thermal stability and thus how rapidly oxygen is released and precursor compound reformed (via a “retro-Diels-Alder reaction”) at any given temperature. At body temperature the half-life (ti/2) for thermal release of ^1O2 from an endoperoxide (also known as “thermolysis”) can range from seconds to days. By combining two or more endoperoxide compounds, one with a relatively slow release rate (long ti/2) at the working temperature, and one or more with faster release rates (short ti/2), it is possible to form delivery systems with a wide range of rates, durations, and profiles of oxygen generation to suit a variety of end-use applications. In some applications it is possible to design a system that could be recharged by photo-oxidizing the reformed precursor compound(s). FIG. 1 illustrates an example of the chemistry involved.

Compound | ti/2 in hours as measured in the presence of CDCL3 at 25° C.
CC1=C(C)C2(C)OOC1(C)c1ccccc12 [1,2,3,4-tetramethylnaphthalene-1,4-endoperoxide] | indeterminant
Cc1cccc2c1C1(C)C=CC2OO1 (centres unmarked) [1,8-dimethylnaphthalene-1,4-endoperoxide] | 30 h
CC1=CC2(C)OOC1(C)c1ccccc12 (centres unmarked) [1,2,4-trimethylnaphthalene-1,4-endoperoxide] | 70 h
Cc1cccc2c1C1(C)C=CC2(C)OO1 (centres unmarked) [1,4,5-trimethylnaphthalene-1,4-endoperoxide] | 290 h
CC12C=CC(C)(OO1)c1ccccc12 [1,4-dimethylnaphthalene-1,4-endoperoxide] | 5 h
